Measurements reported in US6803387B1, “Treatment of neuropathic pain or fibromyalgia” (Abbott GmbH & Co. KG, priority 1999, dated 2004).

System: neuropathic pain
Assay: oral administration to a patient with neuropathic pain
Format: in vivo, human
Conditions: one patient, 10 mg orally once daily for weight loss; pain returned on discontinuation, disappeared again on re-administration
Experimental: Sibutramine 10 mg was administered orally once daily for weight loss to a patient who also had neuropathic pain. The neuropathic pain disappeared. Therapy with sibutramine was discontinued and the neuropathic pain returned. When sibutramine was then administered again, the neuropathic pain disappeared.

CC(C)CC(N(C)C)C1(c2ccc(Cl)cc2)CCC1 (stereo not shown) [Sibutramine, N,N-dimethyl-1-[1-(4-chlorophenyl)cyclobutyl]-3-methylbutylamine]
neuropathic pain: disappeared
